Read-outs that look alike come from different tables or passages of the source.
Columns and labels:
CYP2B6 [1] = target: T1, CYP2B6 (Homo sapiens, UniProt P20813); conditions: 2B6+ clone microsomes; nonlinear regression
CYP2B6 [2] = target: T1, CYP2B6; test: in vitro; conditions: pH 7.4, Km, 2B6+ clone microsomes, nonlinear regression, substrate 1–100 μM, 37°C
recombinant human CYP3A4 = conditions: 3A4+ clone microsomes; nonlinear regression
CYP3A4 = test: in vitro; conditions: human, pH 7.4, Km, 3A4+ clone microsomes; nonlinear regression; substrate 1–100 μM, 37°C
recombinant human CYP2D6 = recombinant human CYP2D6 (Homo sapiens, UniProt P10635); test: CYP activity assay, deethylation of fluorogenic substrate by microsomes of 2D6+ clone; conditions: 2D6+ clone microsomes, nonlinear regression
[3] = test system: CYP2D6 + RAD54 system (CPR-CYP2D6 and RAD54-GFP constructs)
[4] = test system: CYP2B6 + RAD54 system (CPR-CYP2B6 and RAD54-GFP constructs)
[5] = test system: RAD54 system (only the RAD54-GFP construct)
in vitro = conditions: Saccharomyces cerevisiae
[6] = test system: NCs system (control pESC-URA and pUMGP5 plasmids)
[7] = test system: CYP3A4 + RAD54 system (CPR-CYP3A4 and RAD54-GFP constructs)
[8] = test system: RAD54-GFP integrant + CYP1A2; conditions: cited from earlier work
RAD54-GFP integrant = conditions: concentration 1.02–33 μg/mL; ref Walsh et al. 2005 [30]; cited from earlier work
[9] = test system: RAD54-GFP integrant + CYP3A4; conditions: cited from earlier work
[10] = substrate: CCOc1ccc2cc(C#N)c(=O)oc2c1; test: cells, lysate or membranes named; conditions: other: 2D6+ clone microsomes, nonlinear regression, substrate 1–100 μM, 37°C
[11] = concentration 1.02–33 μg/mL, ref Walsh et al. 2005 [30]

T1 sequence (P20813 whole entry): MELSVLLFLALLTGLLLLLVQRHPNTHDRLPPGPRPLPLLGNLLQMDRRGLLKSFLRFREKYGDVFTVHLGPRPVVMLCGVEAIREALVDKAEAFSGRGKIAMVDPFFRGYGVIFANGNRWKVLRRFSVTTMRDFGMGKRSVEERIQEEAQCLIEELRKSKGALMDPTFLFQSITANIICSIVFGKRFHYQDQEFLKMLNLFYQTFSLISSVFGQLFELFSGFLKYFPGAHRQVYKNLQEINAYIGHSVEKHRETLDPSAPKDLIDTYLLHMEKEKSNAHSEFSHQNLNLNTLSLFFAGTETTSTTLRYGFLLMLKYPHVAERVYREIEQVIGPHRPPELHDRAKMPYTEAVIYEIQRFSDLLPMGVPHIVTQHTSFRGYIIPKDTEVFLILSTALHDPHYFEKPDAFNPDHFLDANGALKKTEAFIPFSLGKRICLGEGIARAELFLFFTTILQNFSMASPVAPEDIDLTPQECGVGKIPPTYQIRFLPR

Molecule: CCOc1ccc2cc(C#N)c(=O)oc2c1 [7-ethoxycoumarin-3-carbonitrile]
- Vmax (CYP2B6 [1]): 2.7 pmol/pmol CYP/min
- Km (CYP2B6 [2]): 3.7 µM
- Vmax (recombinant human CYP3A4): 3.2 pmol/pmol CYP/min
- Km (CYP3A4): 3.5 µM
- Vmax (recombinant human CYP2D6): ~ 4.7 pmol/pmol CYP/min
- Km (recombinant human CYP2D6; substrate 1–100 μM, 37°C): ~2.1 µM

Molecule: c1ccc2c(c1)cc1ccc3cccc4ccc2c1c34 [Benzo(a)pyrene, benzo(a)pyrene]
- GFP fold induction signal, CYP2D6 + RAD54 ([3]; 10 μM, 16 h at 30°C): – (Negative (≤1.3 GFP fold induction),–)
- GFP fold induction signal, CYP2D6 + RAD54 ([3]; 20 μM, 16 h at 30°C): – (Negative (≤1.3 GFP fold induction),–)
- GFP fold induction signal, CYP2D6 + RAD54 ([3]; 40 μM, 16 h at 30°C): – (Negative (≤1.3 GFP fold induction),–)
- GFP fold induction signal, CYP2B6 + RAD54 ([4]; 10 μM, 16 h at 30°C): – (Negative (≤1.3 GFP fold induction),–)
- GFP fold induction signal, CYP2B6 + RAD54 ([4]; 20 μM, 16 h at 30°C): – (Negative (≤1.3 GFP fold induction),–)
- GFP fold induction signal, CYP2B6 + RAD54 ([4]; 40 μM, 16 h at 30°C): – (Negative (≤1.3 GFP fold induction),–)
- GFP fold induction signal, RAD54 ([5]; 10 μM, 16 h at 30°C): – (Negative (≤1.3 GFP fold induction),–)
- GFP fold induction signal, RAD54 ([5]; 20 μM, 16 h at 30°C): – (Negative (≤1.3 GFP fold induction),–)
- GFP fold induction signal, RAD54 ([5]; 40 μM, 16 h at 30°C): – (Negative (≤1.3 GFP fold induction),–)
- fold induction (in vitro): ≤ 1.3
- GFP fold induction signal, NCs ([6]; 10 μM, 16 h at 30°C): – (Negative (≤1.3 GFP fold induction),–)
- GFP fold induction signal, NCs ([6]; 20 μM, 16 h at 30°C): – (Negative (≤1.3 GFP fold induction),–)
- GFP fold induction signal, NCs ([6]; 40 μM, 16 h at 30°C): – (Negative (≤1.3 GFP fold induction),–)
- Genotoxicity result, present study, CYP3A4 + RAD54 [7]: +
- GFP fold induction signal, CYP3A4 + RAD54 ([7]; 10 μM, 16 h at 30°C): + (positive (>1.3 GFP fold induction), + (1.3, 2])
- GFP fold induction signal, CYP3A4 + RAD54 ([7]; 20 μM, 16 h at 30°C): + (positive (>1.3 GFP fold induction), + (1.3, 2])
- GFP fold induction signal, CYP3A4 + RAD54 ([7]; 40 μM, 16 h at 30°C): ++ (++ (2, 3])

Molecule: COS(C)(=O)=O [Methyl methanesulfonate, methyl methanesulfonate]
- GFP fold induction signal, CYP2D6 + RAD54 ([3]; 25 μM, 16 h at 30°C): + (positive (>1.3 GFP fold induction), + (1.3, 2])
- GFP fold induction signal, CYP2D6 + RAD54 ([3]; 50 μM, 16 h at 30°C): +++ (+++ (3, 4])
- GFP fold induction signal, CYP2D6 + RAD54 ([3]; 100 μM, 16 h at 30°C): ++++ (++++ (4, ∞])
- Genotoxicity result, present study, CYP2D6 + RAD54 ([3]; concentration 2.75–11.01 μg/mL): +
- Genotoxicity result, published report, RAD54-GFP integrant + CYP1A2 [8, 11]: +
- GFP fold induction signal, CYP2B6 + RAD54 ([4]; 25 μM, 16 h at 30°C): + (positive (>1.3 GFP fold induction), + (1.3, 2])
- GFP fold induction signal, CYP2B6 + RAD54 ([4]; 50 μM, 16 h at 30°C): +++ (+++ (3, 4])
- GFP fold induction signal, CYP2B6 + RAD54 ([4]; 100 μM, 16 h at 30°C): ++++ (++++ (4, ∞])
- Genotoxicity result, present study, CYP2B6 + RAD54 ([4]; concentration 2.75–11.01 μg/mL): +
- GFP fold induction signal, RAD54 ([5]; 25 μM, 16 h at 30°C): + (positive (>1.3 GFP fold induction), + (1.3, 2])
- GFP fold induction signal, RAD54 ([5]; 50 μM, 16 h at 30°C): +++ (+++ (3, 4])
- GFP fold induction signal, RAD54 ([5]; 100 μM, 16 h at 30°C): ++++ (++++ (4, ∞])
- Genotoxicity result, present study, RAD54 ([5]; concentration 2.75–11.01 μg/mL): +
- GFP fold induction signal, NCs ([6]; 25 μM, 16 h at 30°C): – (Negative (≤1.3 GFP fold induction),–)
- GFP fold induction signal, NCs ([6]; 50 μM, 16 h at 30°C): – (Negative (≤1.3 GFP fold induction),–)
- GFP fold induction signal, NCs ([6]; 100 μM, 16 h at 30°C): – (Negative (≤1.3 GFP fold induction),–)
- Genotoxicity result, published report, RAD54-GFP integrant (RAD54-GFP integrant): +
- Genotoxicity result, published report, RAD54-GFP integrant + CYP3A4 [9, 11]: +
- GFP fold induction signal, CYP3A4 + RAD54 ([7]; 25 μM, 16 h at 30°C): + (positive (>1.3 GFP fold induction), + (1.3, 2])
- GFP fold induction signal, CYP3A4 + RAD54 ([7]; 50 μM, 16 h at 30°C): +++ (+++ (3, 4])
- GFP fold induction signal, CYP3A4 + RAD54 ([7]; 100 μM, 16 h at 30°C): ++++ (++++ (4, ∞])
- Genotoxicity result, present study, CYP3A4 + RAD54 ([7]; concentration 2.75–11.01 μg/mL): +

Molecule: N-nitrosodimethylamine
- GFP fold induction signal, CYP2D6 + RAD54 [3]: – (key: Negative (≤1.3 GFP fold induction),–; positive (>1.3 GFP fold induction), + (1.3, 2]; ++ (2, 3]; +++ (3, 4]; ++++ (4, ∞])
- Genotoxicity result, present study, CYP2B6 + RAD54 [4]: +
- GFP fold induction [5]: ≤ 1.3
- GFP fold induction signal, RAD54 [5]: – (key: Negative (≤1.3 GFP fold induction),–; positive (>1.3 GFP fold induction), + (1.3, 2]; ++ (2, 3]; +++ (3, 4]; ++++ (4, ∞])
- GFP fold induction signal, NCs [6]: – (key: Negative (≤1.3 GFP fold induction),–; positive (>1.3 GFP fold induction), + (1.3, 2]; ++ (2, 3]; +++ (3, 4]; ++++ (4, ∞])
- Genotoxicity result, published report, RAD54-GFP integrant + CYP3A4 [9]: +
- GFP fold induction signal, CYP3A4 + RAD54 [7]: – (key: Negative (≤1.3 GFP fold induction),–; positive (>1.3 GFP fold induction), + (1.3, 2]; ++ (2, 3]; +++ (3, 4]; ++++ (4, ∞])

Molecule: aflatoxin B1
- GFP fold induction signal, CYP2D6 + RAD54 ([3]; 0.1 µM): – (key: Negative (≤1.3 GFP fold induction),–; positive (>1.3 GFP fold induction), + (1.3, 2]; ++ (2, 3]; +++ (3, 4]; ++++ (4, ∞])
- GFP fold induction signal, CYP2D6 + RAD54 ([3]; 0.2 µM): – (key: Negative (≤1.3 GFP fold induction),–; positive (>1.3 GFP fold induction), + (1.3, 2]; ++ (2, 3]; +++ (3, 4]; ++++ (4, ∞])
- GFP fold induction signal, CYP2D6 + RAD54 ([3]; 0.4 µM): – (key: Negative (≤1.3 GFP fold induction),–; positive (>1.3 GFP fold induction), + (1.3, 2]; ++ (2, 3]; +++ (3, 4]; ++++ (4, ∞])
- Genotoxicity result, published report, RAD54-GFP integrant + CYP1A2 [8]: +
- Genotoxicity result, present study, CYP2B6 + RAD54 [4]: +
- GFP fold induction signal, CYP2B6 + RAD54 ([4]; 0.1 µM): – (key: Negative (≤1.3 GFP fold induction),–; positive (>1.3 GFP fold induction), + (1.3, 2]; ++ (2, 3]; +++ (3, 4]; ++++ (4, ∞])
- GFP fold induction signal, CYP2B6 + RAD54 ([4]; 0.2 µM): – (key: Negative (≤1.3 GFP fold induction),–; positive (>1.3 GFP fold induction), + (1.3, 2]; ++ (2, 3]; +++ (3, 4]; ++++ (4, ∞])
- GFP fold induction signal, CYP2B6 + RAD54 ([4]; 0.4 µM): + (key: Negative (≤1.3 GFP fold induction),–; positive (>1.3 GFP fold induction), + (1.3, 2]; ++ (2, 3]; +++ (3, 4]; ++++ (4, ∞])
- GFP fold induction [5]: ≤ 1.3
- GFP fold induction signal, RAD54 ([5]; 0.1 µM): – (key: Negative (≤1.3 GFP fold induction),–; positive (>1.3 GFP fold induction), + (1.3, 2]; ++ (2, 3]; +++ (3, 4]; ++++ (4, ∞])
- GFP fold induction signal, RAD54 ([5]; 0.2 µM): – (key: Negative (≤1.3 GFP fold induction),–; positive (>1.3 GFP fold induction), + (1.3, 2]; ++ (2, 3]; +++ (3, 4]; ++++ (4, ∞])
- GFP fold induction signal, RAD54 ([5]; 0.4 µM): – (key: Negative (≤1.3 GFP fold induction),–; positive (>1.3 GFP fold induction), + (1.3, 2]; ++ (2, 3]; +++ (3, 4]; ++++ (4, ∞])
- GFP fold induction signal, NCs ([6]; 0.1 µM): – (key: Negative (≤1.3 GFP fold induction),–; positive (>1.3 GFP fold induction), + (1.3, 2]; ++ (2, 3]; +++ (3, 4]; ++++ (4, ∞])
- GFP fold induction signal, NCs ([6]; 0.2 µM): – (key: Negative (≤1.3 GFP fold induction),–; positive (>1.3 GFP fold induction), + (1.3, 2]; ++ (2, 3]; +++ (3, 4]; ++++ (4, ∞])
- GFP fold induction signal, NCs ([6]; 0.4 µM): – (key: Negative (≤1.3 GFP fold induction),–; positive (>1.3 GFP fold induction), + (1.3, 2]; ++ (2, 3]; +++ (3, 4]; ++++ (4, ∞])
- Genotoxicity result, present study, CYP3A4 + RAD54 [7]: +
- GFP fold induction signal, CYP3A4 + RAD54 ([7]; 0.1 µM): + (key: Negative (≤1.3 GFP fold induction),–; positive (>1.3 GFP fold induction), + (1.3, 2]; ++ (2, 3]; +++ (3, 4]; ++++ (4, ∞])
- GFP fold induction signal, CYP3A4 + RAD54 ([7]; 0.2 µM): ++ (key: Negative (≤1.3 GFP fold induction),–; positive (>1.3 GFP fold induction), + (1.3, 2]; ++ (2, 3]; +++ (3, 4]; ++++ (4, ∞])
- GFP fold induction signal, CYP3A4 + RAD54 ([7]; 0.4 µM): ++ (key: Negative (≤1.3 GFP fold induction),–; positive (>1.3 GFP fold induction), + (1.3, 2]; ++ (2, 3]; +++ (3, 4]; ++++ (4, ∞])

B1: recombinant human CYP2D6 (Homo sapiens) (protein)
chain: MGLEALVPLAVIVAIFLLLVDLMHRRQRWAARYPPGPLPLPGLGNLLHVDFQNTPYCFDQLRRRFGDVFSLQLAWTPVVVLNGLAAVREALVTHGEDTADRPPVPITQILGFGPRSQGVFLARYGPAWREQRRFSVSTLRNLGLGKKSLEQWVTEEAACLCAAFANHSGRPFRPNGLLDKAVSNVIASLTCGRRFEYDDPRFLRLLDLAQEGLKEESGFLREVLNAVPVLLHIPALAGKVLRFQKAFLTQLDELLTEHRMTWDPAQPPRDLTEAFLAEMEKAKGNPESSFNDENLRIVVADLFSAGMVTTSTTLAWGLLLMILHPDVQRRVQQEIDDVIGQVRRPEMGDQAHMPYTTAVIHEVQRFGDIVPLGVTHMTSRDIEVQGFRIPKGTTLITNLSSVLKDEAVWEKPFRFHPEHFLDAQGHFVKPEAFLPFSAGRRACLGEPLARMELFLFFTSLLQHFSFSVPTGQPRPSHHGVFAFLVSPSPYELCAVPR
- Km [10]: 2.1 µM
- kcat [10]: 4.7 pmol/pmol CYP/min
- kcat/Km [10]: 2.2 μL/pmol CYP/min

— paper PMC5179006, “Procarcinogens – Determination and Evaluation by Yeast-Based Biosensor Transformed with Plasmids Incorporating RAD54 Reporter Construct and Cytochrome P450 Genes” (PLoS ONE, 2016)
